In ChEMBL document CHEMBL3991601, “The target landscape of clinical kinase drugs” (Science, 2017) one finds Kd data, which are given here for 7 compounds.

Test [1] addresses Mitogen-activated protein kinase 11 (Homo sapiens, UniProt Q15759).
Test [2] concerns the target cAMP-dependent protein kinase catalytic subunit beta (Homo sapiens, UniProt P22694).
The target of test [3] is Cyclin-dependent kinase 7 (Homo sapiens, UniProt P50613).
A further test has as its target DNA topoisomerase 2-beta (Homo sapiens, UniProt Q02880).
In test [4] the target is Inosine-5'-monophosphate dehydrogenase 2 (Homo sapiens, UniProt P12268).
Test [5] concerns the target Protein kinase C alpha type (Homo sapiens, UniProt P17252).
In test [6] the target is T1, Breakpoint cluster region protein (Homo sapiens, UniProt P11274).
T1 sequence (P11274 whole entry): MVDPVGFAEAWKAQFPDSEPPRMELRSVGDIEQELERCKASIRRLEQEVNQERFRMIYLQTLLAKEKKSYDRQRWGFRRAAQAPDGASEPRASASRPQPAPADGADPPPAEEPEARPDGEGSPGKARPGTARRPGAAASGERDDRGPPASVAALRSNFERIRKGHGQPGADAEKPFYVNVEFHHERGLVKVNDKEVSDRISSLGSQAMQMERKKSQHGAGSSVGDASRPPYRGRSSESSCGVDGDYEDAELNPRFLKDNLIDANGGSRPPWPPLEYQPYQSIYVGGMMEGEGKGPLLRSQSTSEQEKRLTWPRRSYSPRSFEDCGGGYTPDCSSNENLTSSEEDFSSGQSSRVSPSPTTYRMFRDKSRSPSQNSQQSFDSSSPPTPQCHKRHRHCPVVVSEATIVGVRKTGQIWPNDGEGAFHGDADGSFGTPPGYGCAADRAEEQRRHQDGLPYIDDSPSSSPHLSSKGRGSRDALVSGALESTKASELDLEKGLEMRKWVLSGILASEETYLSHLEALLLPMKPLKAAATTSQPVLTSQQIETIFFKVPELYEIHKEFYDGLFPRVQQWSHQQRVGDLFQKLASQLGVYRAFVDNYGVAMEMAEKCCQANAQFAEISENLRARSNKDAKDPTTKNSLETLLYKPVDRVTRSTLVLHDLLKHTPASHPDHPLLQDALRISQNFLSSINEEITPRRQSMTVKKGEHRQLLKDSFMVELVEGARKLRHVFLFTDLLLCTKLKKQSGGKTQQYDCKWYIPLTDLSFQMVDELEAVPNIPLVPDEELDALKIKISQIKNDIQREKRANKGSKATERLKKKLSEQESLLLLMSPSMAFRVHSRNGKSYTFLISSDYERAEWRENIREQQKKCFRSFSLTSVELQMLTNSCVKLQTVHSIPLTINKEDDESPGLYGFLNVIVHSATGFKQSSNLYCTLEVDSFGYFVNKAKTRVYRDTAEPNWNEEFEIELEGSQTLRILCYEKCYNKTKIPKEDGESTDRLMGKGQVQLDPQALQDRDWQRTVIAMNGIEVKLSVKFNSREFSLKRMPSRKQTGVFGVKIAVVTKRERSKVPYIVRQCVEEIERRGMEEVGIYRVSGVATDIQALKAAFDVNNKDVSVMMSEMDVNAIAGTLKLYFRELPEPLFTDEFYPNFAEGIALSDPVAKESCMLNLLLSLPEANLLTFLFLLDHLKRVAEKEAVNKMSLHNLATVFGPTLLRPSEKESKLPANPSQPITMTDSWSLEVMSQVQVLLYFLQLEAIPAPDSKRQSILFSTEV

The target in test [7] is T2, Serine/threonine-protein kinase Nek9 (Homo sapiens, UniProt Q8TD19).
T2 sequence (Q8TD19 whole entry): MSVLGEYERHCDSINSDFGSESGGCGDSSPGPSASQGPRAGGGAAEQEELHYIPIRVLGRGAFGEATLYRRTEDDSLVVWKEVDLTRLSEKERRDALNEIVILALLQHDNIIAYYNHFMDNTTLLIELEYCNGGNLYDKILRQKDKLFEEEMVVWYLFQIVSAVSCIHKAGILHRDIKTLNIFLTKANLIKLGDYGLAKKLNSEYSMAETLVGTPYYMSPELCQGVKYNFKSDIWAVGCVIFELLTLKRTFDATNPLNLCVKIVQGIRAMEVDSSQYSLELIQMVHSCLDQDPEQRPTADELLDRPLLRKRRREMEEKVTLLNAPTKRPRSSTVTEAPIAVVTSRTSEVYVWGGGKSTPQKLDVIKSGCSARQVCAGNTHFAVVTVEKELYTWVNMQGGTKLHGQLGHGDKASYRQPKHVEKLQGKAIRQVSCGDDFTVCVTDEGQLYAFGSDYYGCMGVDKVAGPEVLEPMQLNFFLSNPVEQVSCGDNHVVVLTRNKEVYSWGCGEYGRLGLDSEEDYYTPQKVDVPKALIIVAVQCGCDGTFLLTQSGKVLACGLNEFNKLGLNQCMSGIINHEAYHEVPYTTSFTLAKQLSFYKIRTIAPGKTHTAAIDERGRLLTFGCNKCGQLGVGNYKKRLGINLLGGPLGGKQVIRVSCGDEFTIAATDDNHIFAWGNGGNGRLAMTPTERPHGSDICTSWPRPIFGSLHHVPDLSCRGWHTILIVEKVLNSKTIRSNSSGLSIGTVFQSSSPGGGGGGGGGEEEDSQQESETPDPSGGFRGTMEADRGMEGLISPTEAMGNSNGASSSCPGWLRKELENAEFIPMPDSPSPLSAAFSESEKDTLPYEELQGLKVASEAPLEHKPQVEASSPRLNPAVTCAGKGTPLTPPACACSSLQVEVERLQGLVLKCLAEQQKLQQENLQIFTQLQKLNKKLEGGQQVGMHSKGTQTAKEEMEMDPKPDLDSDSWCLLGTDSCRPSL

The target of test [8] is U5 small nuclear ribonucleoprotein 200 kDa helicase (Homo sapiens, UniProt O75643).
In test [9] the target is T3, Dual specificity mitogen-activated protein kinase kinase 3 (Homo sapiens, UniProt P46734).
T3 sequence (P46734 whole entry): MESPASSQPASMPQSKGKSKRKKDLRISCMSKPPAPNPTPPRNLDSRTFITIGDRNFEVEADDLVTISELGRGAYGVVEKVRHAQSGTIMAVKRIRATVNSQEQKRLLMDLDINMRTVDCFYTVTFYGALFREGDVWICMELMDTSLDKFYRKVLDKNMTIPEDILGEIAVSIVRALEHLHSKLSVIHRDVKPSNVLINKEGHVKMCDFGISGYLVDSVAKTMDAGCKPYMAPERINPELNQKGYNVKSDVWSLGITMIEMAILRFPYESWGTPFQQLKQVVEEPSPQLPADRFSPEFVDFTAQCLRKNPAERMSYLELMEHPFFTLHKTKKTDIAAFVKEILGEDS

Test [10] concerns the target Ras-related protein Rab-6A (Homo sapiens, UniProt P20340).

Active and inactive are the calls of the source.
Also: in the data inactive means no Kd found up to 30 µM.

U5 small nuclear ribonucleoprotein 200 kDa helicase, sequence (O75643 whole entry): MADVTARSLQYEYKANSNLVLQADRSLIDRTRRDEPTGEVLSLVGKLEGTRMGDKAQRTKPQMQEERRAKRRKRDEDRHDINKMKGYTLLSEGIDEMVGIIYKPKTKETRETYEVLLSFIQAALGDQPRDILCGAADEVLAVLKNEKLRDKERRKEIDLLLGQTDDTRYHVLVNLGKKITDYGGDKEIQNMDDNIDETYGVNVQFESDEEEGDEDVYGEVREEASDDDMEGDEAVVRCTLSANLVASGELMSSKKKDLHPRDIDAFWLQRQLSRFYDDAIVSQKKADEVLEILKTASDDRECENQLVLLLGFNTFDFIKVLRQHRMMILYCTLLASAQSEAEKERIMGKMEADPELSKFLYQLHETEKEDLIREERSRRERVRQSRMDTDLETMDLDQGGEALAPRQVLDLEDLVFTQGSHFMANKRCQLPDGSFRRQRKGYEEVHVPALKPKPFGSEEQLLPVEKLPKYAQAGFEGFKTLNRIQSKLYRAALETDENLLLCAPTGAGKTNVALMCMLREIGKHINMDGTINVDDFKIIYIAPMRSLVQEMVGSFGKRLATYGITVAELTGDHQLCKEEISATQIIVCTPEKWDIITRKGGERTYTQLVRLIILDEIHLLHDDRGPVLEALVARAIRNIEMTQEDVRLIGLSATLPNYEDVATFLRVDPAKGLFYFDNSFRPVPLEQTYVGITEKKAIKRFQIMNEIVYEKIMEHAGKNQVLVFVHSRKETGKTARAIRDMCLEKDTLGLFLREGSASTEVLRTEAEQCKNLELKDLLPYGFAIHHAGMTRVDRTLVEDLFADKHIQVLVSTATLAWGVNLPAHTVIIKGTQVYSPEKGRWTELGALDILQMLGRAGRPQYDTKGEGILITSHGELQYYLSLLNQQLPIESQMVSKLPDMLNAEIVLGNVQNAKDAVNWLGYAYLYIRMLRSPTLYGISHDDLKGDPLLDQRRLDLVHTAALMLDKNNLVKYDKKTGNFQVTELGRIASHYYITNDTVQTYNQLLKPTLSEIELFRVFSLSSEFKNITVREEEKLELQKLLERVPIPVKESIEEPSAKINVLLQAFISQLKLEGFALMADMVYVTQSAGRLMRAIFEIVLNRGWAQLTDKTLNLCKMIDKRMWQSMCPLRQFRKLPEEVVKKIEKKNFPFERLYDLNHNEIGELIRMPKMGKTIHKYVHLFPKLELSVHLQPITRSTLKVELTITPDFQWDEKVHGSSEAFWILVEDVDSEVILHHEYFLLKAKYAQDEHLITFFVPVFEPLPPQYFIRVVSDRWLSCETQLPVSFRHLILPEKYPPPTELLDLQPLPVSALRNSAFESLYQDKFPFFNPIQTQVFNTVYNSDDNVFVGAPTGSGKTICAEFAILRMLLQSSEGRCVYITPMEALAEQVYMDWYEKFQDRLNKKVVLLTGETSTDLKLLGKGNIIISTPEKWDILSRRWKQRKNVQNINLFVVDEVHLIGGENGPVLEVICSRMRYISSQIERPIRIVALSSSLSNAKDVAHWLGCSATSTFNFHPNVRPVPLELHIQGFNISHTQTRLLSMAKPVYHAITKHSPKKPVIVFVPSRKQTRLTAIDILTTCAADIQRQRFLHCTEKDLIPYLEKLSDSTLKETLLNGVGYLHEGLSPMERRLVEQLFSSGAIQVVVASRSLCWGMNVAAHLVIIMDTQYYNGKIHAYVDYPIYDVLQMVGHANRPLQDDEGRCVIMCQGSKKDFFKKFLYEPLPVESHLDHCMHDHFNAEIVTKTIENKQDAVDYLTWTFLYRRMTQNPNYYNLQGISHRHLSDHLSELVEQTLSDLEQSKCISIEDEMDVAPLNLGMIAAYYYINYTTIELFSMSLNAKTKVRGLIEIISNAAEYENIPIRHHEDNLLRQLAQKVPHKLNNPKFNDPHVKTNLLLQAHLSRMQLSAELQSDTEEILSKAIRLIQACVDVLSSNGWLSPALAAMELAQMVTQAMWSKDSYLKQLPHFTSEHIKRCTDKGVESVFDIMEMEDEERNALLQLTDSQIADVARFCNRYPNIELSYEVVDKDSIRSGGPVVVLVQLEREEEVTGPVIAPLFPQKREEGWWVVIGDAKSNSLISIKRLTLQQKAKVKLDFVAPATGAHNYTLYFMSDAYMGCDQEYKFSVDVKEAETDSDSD
DNA topoisomerase 2-beta, sequence (Q02880 whole entry): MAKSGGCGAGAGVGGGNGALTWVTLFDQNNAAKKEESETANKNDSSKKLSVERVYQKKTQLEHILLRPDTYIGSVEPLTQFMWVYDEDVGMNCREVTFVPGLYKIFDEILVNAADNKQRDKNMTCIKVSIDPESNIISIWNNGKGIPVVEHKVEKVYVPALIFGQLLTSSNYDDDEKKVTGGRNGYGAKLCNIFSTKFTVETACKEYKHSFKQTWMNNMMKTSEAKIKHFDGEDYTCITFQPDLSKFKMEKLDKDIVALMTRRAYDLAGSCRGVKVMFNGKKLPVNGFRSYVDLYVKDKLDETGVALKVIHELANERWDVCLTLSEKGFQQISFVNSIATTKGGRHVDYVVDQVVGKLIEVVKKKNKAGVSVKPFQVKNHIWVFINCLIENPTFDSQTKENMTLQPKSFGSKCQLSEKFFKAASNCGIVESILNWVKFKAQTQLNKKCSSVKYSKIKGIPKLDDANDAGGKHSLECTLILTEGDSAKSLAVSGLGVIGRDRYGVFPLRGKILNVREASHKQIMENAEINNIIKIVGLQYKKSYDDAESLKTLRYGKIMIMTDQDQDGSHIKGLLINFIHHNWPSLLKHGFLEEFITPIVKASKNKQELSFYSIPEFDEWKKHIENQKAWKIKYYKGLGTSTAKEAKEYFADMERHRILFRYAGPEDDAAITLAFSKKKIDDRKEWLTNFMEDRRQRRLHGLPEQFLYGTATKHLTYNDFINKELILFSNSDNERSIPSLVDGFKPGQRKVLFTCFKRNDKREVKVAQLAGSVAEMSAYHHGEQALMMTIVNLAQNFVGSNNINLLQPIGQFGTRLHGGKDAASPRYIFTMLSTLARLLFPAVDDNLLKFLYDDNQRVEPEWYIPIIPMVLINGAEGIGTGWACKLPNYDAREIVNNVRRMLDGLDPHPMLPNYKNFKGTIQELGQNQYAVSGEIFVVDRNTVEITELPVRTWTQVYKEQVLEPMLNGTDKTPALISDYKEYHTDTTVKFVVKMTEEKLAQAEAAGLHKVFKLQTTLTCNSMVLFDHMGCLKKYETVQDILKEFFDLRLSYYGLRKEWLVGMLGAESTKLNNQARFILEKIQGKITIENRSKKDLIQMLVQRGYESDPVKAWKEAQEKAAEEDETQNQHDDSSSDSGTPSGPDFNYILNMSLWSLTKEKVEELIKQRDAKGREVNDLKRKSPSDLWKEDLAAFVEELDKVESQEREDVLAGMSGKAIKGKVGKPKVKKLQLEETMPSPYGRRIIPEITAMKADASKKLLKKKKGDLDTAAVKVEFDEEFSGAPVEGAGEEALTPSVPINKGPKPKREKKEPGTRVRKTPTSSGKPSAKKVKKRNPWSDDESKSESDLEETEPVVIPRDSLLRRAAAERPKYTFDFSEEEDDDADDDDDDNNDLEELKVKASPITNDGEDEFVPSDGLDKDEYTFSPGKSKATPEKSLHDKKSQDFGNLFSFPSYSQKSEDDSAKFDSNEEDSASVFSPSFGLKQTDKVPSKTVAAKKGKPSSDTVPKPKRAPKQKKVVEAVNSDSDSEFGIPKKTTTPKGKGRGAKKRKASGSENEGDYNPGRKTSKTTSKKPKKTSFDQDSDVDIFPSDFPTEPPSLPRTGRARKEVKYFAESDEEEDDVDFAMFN
Mitogen-activated protein kinase 11, sequence (Q15759 whole entry): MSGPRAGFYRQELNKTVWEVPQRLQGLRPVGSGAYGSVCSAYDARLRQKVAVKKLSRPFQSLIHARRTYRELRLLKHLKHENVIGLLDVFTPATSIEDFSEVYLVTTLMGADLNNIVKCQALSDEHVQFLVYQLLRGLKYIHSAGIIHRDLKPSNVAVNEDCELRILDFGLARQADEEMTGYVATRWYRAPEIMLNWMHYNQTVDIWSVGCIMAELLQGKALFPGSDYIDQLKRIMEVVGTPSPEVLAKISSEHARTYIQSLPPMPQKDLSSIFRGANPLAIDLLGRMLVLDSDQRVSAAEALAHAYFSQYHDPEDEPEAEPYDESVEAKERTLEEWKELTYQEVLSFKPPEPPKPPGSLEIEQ
Ras-related protein Rab-6A, sequence (P20340 whole entry): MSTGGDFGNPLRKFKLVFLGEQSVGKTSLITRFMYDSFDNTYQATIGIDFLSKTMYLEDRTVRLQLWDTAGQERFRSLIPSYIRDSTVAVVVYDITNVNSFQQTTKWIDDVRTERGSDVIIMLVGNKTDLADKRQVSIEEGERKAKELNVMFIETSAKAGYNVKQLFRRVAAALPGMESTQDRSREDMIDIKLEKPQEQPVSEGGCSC

What is called Kd is a measure of binding affinity in units of concentration. In the case of `C[C@@H](Oc1cc(C(=O)Nc2ccc(C(=O)N3CCN(C)CC3)cc2)nnc1N)c1c(Cl)ccc(F)c1Cl`, the Kd (in [1]; in test [2]; in [3]; at DNA topoisomerase 2-beta; in test [4]; in [5]) was > 30 µM (inactive) throughout. For the same compound, the Kd in [6], in [7], in test [8], in test [9] and in test [10] was > 30 µM (inactive) in each case.
As for `C[C@H]1CNCCCN1S(=O)(=O)c1cccc2cncc(F)c12`, the Kd (in [1]; in test [2]; in test [3]; on DNA topoisomerase 2-beta; in test [4]; in test [5]) was > 30 µM (inactive) throughout. Besides, the Kd in test [6] was > 30 µM (inactive); in [7], > 30 µM (inactive); in test [8], > 30 µM (inactive); in [9], 3.08 µM (active); in test [10] it was > 30 µM (inactive).
As to `Cc1csc(-c2nnc(Nc3ccc(Oc4ncccc4-c4ccnc(N)n4)cc3)c3ccccc23)c1` [AMG-900], the Kd was > 30 µM (inactive) in test [1]; > 30 µM (inactive) in test [2]; > 30 µM (inactive) in [3]; 2.6 µM at DNA topoisomerase 2-beta; > 30 µM (inactive) in test [4]; > 30 µM (inactive) in test [5]. Further, the Kd is 1.97 µM (active) in [6]; > 30 µM (inactive) in [7]; > 30 µM (inactive) in [8]; > 30 µM (inactive) in [9]; > 30 µM (inactive) in test [10].
Regarding `C=CC(=O)Nc1cc2c(Nc3ccc(F)c(Cl)c3)ncnc2cc1C#CC(C)(C)N1CCN(C)CC1` [AV-412 FREE BASE], the Kd (in test [1]; in test [2]; in test [3]; on DNA topoisomerase 2-beta; in test [4]; in [5]) was > 30 µM (inactive) in each case. Besides, the Kd in [6], in [7], in test [8], in test [9] and in test [10] was > 30 µM (inactive) throughout.
With `COc1cc([C@@H]2c3cc4c(cc3[C@H](O)[C@H]3COC(=O)[C@@H]23)OCO4)cc(OC)c1OC` [AXL-1717], the Kd (in test [1]; in [2]; in [3]; at DNA topoisomerase 2-beta; in [4]; in [5]) was > 30 µM (inactive) throughout. The Kd in [6], in test [7], in [8], in test [9] and in test [10] was > 30 µM (inactive) throughout.
In the case of `Cn1cnc2c(F)c(Nc3ccc(Br)cc3F)c(C(=O)NOCCO)cc21` [BINIMETINIB], the Kd (in test [1]; in test [2]; in test [3]; on DNA topoisomerase 2-beta; in test [4]; in test [5]) was > 30 µM (inactive) each time. Moreover, the Kd in [6], in [7], in test [8], in test [9] and in test [10] was > 30 µM (inactive) in each case.
For the compound `CCn1c(C(=O)N(C2CC2)C2CC2)cc2c3c(ncn3C)c(Nc3cc(C)n(C)n3)nc21` [BMS-911543], the Kd (in test [1]; in test [2]; in [3]; at DNA topoisomerase 2-beta; in [4]; in test [5]) was > 30 µM (inactive) in each case. Moreover, the Kd in [6], in test [7], in [8], in [9] and in test [10] was > 30 µM (inactive) in each case.
